Assay results: article PMC3410856, “Structural Analysis of Specific Metal Chelating Inhibitor Binding to the Endonuclease Domain of Influenza pH1N1 (2009) Polymerase” (PLoS Pathogens, 2012)
Read-outs that look alike come from different tables or passages of the source.

Columns and labels:
[1] = target: T1, H1N1 PA-Nter (Influenza A virus, UniProt C3W5S0); type: binding
T1 construct: PA-N-ter (residues 1–198) from A/California/04/2009-pH1N1; made in house; host or cells: E. coli BL21(DE3)

[2] = system: Influenza A virus A/Aichi/2/68 (H3N2); assay: microbe, parasite or virus in culture; type: cell-based; conditions: MDCK cells, MOI 0.05, 48 h, CellTiter-Glo, 95% confidence intervals; for IC50: Influenza A virus, H3N2, read-out: antiviral activity IC50 (reduction of virus induced cytopathic effect)
[3] = in vitro; conditions: dog
[4] = target: influenza polymerase; conditions: read-out: IC50 in vitro cap-dependent transcriptase assay; cited from earlier work

| Structure (SMILES) | Tm (apparent melting temperature) ([1]; 5 µM PA-Nter, 500 µM inhibitor, no ligand 53.5) [°C] | antiviral activity IC50 (reduction of virus induced cytopathic effect) [2] | antiviral activity IC50 (reduction of virus induced cytopathic effect) ([2]; listed as DBPA) | CC50 [3] [µM] | IC50 [2] [µM] | Tm (apparent melting temperature) [1] [°C] | IC50 [4] [µM] |
| --- | --- | --- | --- | --- | --- | --- | --- |
| O=C(O)C(=O)CC(=O)c1ccccc1 [DPBA, 2,4-dioxo-4-phenylbutanoic acid] | 65 | inactive | did not show any inhibitory effect | > 200 | – | – | – |
| O=C(O[C@@H]1Cc2c(O)cc(O)cc2O[C@@H]1c1cc(O)c(O)c(O)c1)c1cc(O)c(O)c(O)c1 [EGCG, [(2R,3R)-5,7-dihydroxy-2-(3,4,5-trihydroxyphenyl)chroman-3-yl]3,4,5-trihydroxybenzoate] | – | – | – | 54.7 ± 4.5 | 1.1 ± 0.4 | – | – |
| O=C(O)/C(O)=C/C(=O)C1(Cc2ccc(Cl)cc2)CCCN(S(=O)(=O)Cc2ccccc2)C1 (stereo not shown) [R05-1, 4-[3-[(4-chlorophenyl)methyl]-1-(phenylmethylsulpho)-3-piperidinyl]-2-hydroxy-4-oxo-2-butenoic acid] | – | – | – | > 100 | 20.4 ± 3 | 69 | 0.19 |
| O=C(O)/C(O)=C/C(=O)C1(Cc2ccc(Cl)cc2)CCN(CC2CCCCC2)CC1 [R05-2, 4-[1-cyclohexylmethyl-4-(p-chlorobenzyl)piperidin-4-yl]2,4-dioxobutanoic acid] | – | – | – | > 50 | 15.9 ± 4 | 71 | – |
| O=C(O)/C(O)=C/C(=O)C1(Cc2ccc(Cl)cc2)CCCN(Cc2ccccc2)C1 (stereo not shown) [R05-3, 4-[N-benzyl-3-(4-chlorobenzyl)piperidin-3-yl]2,4-dioxobutanoic acid] | – | – | – | 79.8 ± 11.5 | 19.9 ± 2 | 69 | – |
